From US9247759B2, “Identification of human T2R receptors that respond to bitter compounds that elicit the bitter taste in compositions, and the use thereof in assays to identify compounds that inhibit (block) bitter taste in compositions and use thereof” (SENOMYX, INC., priority 2007, dated 2016) come the findings set out here.

Read-outs that look alike come from different tables or passages of the source.

The test system of one test is hT2R63. The test is described as follows: hT2R panel inhibition, transient HEK293 G16g44, agonist Caffeine 1 mM or Andrographolide 100 μM. To be noted: compound at 25 μM; for screening result against bitter receptor 63: receptor activated to EC80 with the corresponding agonist. Format: cell-based, human. As for the experimental part:
(§1) Specifically, in order to evaluate the inhibitory selectivity of the Compound C compound, this compound was tested against 22 human T2Rs which were deorphaned by Senomyx. These receptors and the bitter ligands that activate these human T2Rs are reported in earlier patent applications which are incorporated by reference herein. These 22 human T2Rs are hT2R1, 3, 4, 5, 7, 8, 9, 10, 13, 14, 16, 44, 51, 54, 55, 61, 63, 64, 65, 67, 71 and 75. The amino acid and nucleic acid sequences of all of these T2Rs may be found in these earlier patent applications. These human T2Rs were each individually transiently transfected into HEK293 cells that stably express the promiscuous G protein G16g44 and functional assays were effected using these receptors as disclosed in these same patent applications. […] The ligands were used at EC80 concentration levels. The list of bitter ligands utilized and the tested ligand concentrations are contained in Table 5 of this example.
(§2) Relating to the foregoing, FIG. 5 contains experimental results wherein Compound C was tested with different agonist compounds. The inhibition activity is represented by the reduction of receptor activity in the presence of Compound C. […] These 13 hT2Rs are hT2R3, 7, 10, 14, 16, 44, 51, 55, 61, 63, 64, 65, and 71.

Another test deals with hT2R64 (Homo sapiens (Human), UniProt P59538). The test is described as follows: hT2R panel inhibition, transient HEK293 G16g44, agonist Aristolochic Acid 1 μM. Format: cell-based. To be noted: HEK293, compound at 25 μM. As for the experimental part: as §1, §2
hT2R64, sequence (P59538 whole entry): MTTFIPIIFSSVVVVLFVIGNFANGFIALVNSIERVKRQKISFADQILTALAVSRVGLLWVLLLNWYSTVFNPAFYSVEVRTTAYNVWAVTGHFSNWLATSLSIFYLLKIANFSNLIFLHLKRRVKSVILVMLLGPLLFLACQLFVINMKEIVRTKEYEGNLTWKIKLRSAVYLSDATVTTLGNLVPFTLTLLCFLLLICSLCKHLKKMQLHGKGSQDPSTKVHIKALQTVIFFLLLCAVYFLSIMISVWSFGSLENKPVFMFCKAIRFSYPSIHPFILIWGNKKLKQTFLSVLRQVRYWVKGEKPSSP
The target in another test is hT2R71 (Homo sapiens (Human), UniProt P59536). The test is described as follows: hT2R panel inhibition, transient HEK293 G16g44, agonist Picric Acid 10 μM. Format: cell-based. To be noted: HEK293, compound at 25 μM; receptor activated to EC80 with the corresponding agonist; read-out: screening result against bitter receptor 71. As for the experimental part:
as §1, §2

A further test concerns the target hT2R61 (Homo sapiens (Human), UniProt P59537). Put plainly: hT2R panel inhibition, transient HEK293 G16g44, agonist Aristolochic Acid 25 nM. Format: cell-based. To be noted: HEK293, compound at 25 μM. As to the method: as §1, §2
The target of test [1] is T1, hT2R14 (Homo sapiens (Human), UniProt Q9NYV8). The test is described as follows: hT2R14 antagonist high-throughput FLIPR assay, stable cell line with G16g44, agonist aristolochic acid. Format: cell-based. As to the method:
The inventors also used the automated fluorimetric […] system FLIPR using a slightly different protocol. A HEK293 cell line stably expressing G16gust44 was transfected with a hT2R expression plasmid, 24 hours later, the cells are loaded and analyzed on FLIPR.
After a ligand is identified for a particular hT2R, a HEK293 cell line stably expressing both the hT2R and G16gust44 are generated, facilitating future screening assays to identify other ligands that activate the particular hT2R or which modulate (block or enhance) the activation of this hT2R by another bitter ligand such as a bitter compound contained in coffee. This avoids the need for transient transfection.
To identify antagonists, cell lines stably expressing hT2R8 and hT2R14, respectively, together with the promiscuous chimeric G16g44 protein were generated as described in previous patent applications. A high-throughput assay was established using the stable cell lines and FLIPR (Fluorescent Imaging Plate Reader). An agonist of hT2R8 or hT2R14 was used to activate the receptors up to 70-80% of their respective maximal activity. For hT2R8, the agonist used was andrographolide (200 […]); for hT2R14, it was aristolochic acid (3 μM). To identify antagonists, compounds with diverse chemical structures were added together with the agonist.

For test [2], the target named is T1, hT2R14. Put plainly: hT2R panel inhibition, transient HEK293 G16g44, agonist Aristolochic Acid 2 μM. Format: cell-based. To be noted: HEK293, compound at 25 μM; receptor activated to EC80 with agonist; read-out: inhibition of bitter receptor 14. As to the method: as §1
The mark [3] stands for this setting: receptor activated to EC80 with the corresponding agonist, read-out: screening result against bitter receptor 64.
Where [4] appears, read: receptor activated to EC80 with the corresponding agonist, read-out: screening result against bitter receptor 61.

T1 sequence (Q9NYV8 whole entry): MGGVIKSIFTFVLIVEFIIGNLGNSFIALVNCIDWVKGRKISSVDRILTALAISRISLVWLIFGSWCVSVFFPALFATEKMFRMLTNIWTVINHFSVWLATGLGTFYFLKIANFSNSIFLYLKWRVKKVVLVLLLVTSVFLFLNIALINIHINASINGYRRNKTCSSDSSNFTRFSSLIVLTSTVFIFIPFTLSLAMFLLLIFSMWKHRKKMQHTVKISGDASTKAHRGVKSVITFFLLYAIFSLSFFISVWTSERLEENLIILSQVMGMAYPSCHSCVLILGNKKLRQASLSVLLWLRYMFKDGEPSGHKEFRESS
hT2R61, sequence (P59537 whole entry): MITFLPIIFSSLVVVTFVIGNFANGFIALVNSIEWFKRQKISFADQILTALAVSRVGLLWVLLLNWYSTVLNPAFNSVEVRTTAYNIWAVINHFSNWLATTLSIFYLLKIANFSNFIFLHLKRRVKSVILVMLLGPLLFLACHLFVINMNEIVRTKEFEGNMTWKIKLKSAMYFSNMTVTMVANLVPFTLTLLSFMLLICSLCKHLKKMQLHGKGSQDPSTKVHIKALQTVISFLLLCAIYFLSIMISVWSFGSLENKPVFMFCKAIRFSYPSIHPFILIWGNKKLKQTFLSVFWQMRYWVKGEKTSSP
hT2R71, sequence (P59536 whole entry): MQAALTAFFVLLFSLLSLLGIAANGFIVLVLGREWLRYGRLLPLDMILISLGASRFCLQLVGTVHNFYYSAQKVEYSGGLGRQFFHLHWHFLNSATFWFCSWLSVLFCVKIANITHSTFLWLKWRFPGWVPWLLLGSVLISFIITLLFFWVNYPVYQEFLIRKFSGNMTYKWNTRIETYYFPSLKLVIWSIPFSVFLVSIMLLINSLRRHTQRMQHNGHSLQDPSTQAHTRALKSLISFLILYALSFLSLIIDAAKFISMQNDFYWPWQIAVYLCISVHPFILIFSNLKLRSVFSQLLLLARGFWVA

On to `COc1ccc(CN(C)S(=O)(=O)c2ccc(C(=O)O)cc2)cc1` [Example 5-29, 4-(N-(4-methoxybenzyl)-N-methylsulfamoyl)benzoic acid], for which the “screening result against bitter receptor 63” value (from here on “screening result”) in the test with hT2R63 is “+++ (60% to 80% inhibition = +++)”. The inhibition at 25 µM on hT2R64 (setting [3]) is 40 to 60%.
On to `COc1ccc(CN(Cc2ccc(C(=O)O)cc2)S(=O)(=O)c2ccc(C(=O)O)cc2)cc1` [Example 5-38, 4-((4-carboxy-N-(4-methoxybenzyl)phenylsulfonamido)methyl)-benzoic acid], for which the inhibition at 25 µM was 20 to 40% at hT2R71, over 80% on hT2R61 (setting [4]) and 20 to 40% on hT2R64 (setting [3]). The “screening result” value with hT2R63 was “++++ (80% or greater inhibition = ++++)”.
Take `COc1ccc(CN(Cc2ccccc2)S(=O)(=O)c2ccccc2C(=O)O)cc1` [Example 5-60, 2-(N-benzyl-N-(4-methoxybenzyl)sulfamoyl)benzoic acid]: the inhibition at 25 µM on hT2R64 (setting [3]) fell in the range of 20 to 40%.
As for `COc1ccc(CN(Cc2cccc(C(=O)O)c2)S(=O)(=O)c2ccc(C(=O)O)cc2)cc1` [Example 5-82, 3-((4-carboxy-N-(4-methoxybenzyl)phenylsulfonamido)methyl) benzoic acid], the values for the inhibition at 25 µM at hT2R71, on hT2R61 (setting [4]) and on hT2R64 (setting [3]) were 20 to 40%, over 80% and 20 to 40%, respectively. Besides, the “screening result” value in the test with hT2R63 is “++++ (80% or greater inhibition = ++++)”.
The IC50 is the point on the concentration scale where inhibition reaches its midpoint. Turning to `COc1ccc2c(c1)C(c1ccccc1)N(S(=O)(=O)c1ccc(C(=O)O)cc1)CC2` (centres unmarked) [Example 5-163, 4-(7-methoxy-1-phenyl-3,4-dihydroisoquinolin-2(1H)-ylsulfonyl)benzoic acid], the IC50 on hT2R14 [1] (Table C, read-out: hT2R14 IC50) turned out to be 2880 nM.
In the case of `N#C/C(=C\c1ccco1)C(=O)Nc1nnc(-c2ccccc2)s1` [Example 6-2, (E)-2-cyano-3-(furan-2-yl)-N-(5-phenyl-1,3,4-thiadiazol-2-yl)acrylamide], the IC50 on hT2R14 [1] (read-out: IC50 on hT2R14 bitter receptor) worked out at 499 nM. The inhibition at 25 µM is 40 to 60% at hT2R61 (receptor activated to EC80 with agonist, read-out: inhibition of bitter receptor 61); 20 to 40% on hT2R64 (receptor activated to EC80 with agonist, read-out: inhibition of bitter receptor 64); over 80% at hT2R14 [2]. In addition, the “inhibition of bitter receptor 63” value with hT2R63 (receptor activated to EC80 with agonist) is on record as “+ (20% to 40% inhibition = +)”.
Turning to `Cc1cccc(C)c1NS(=O)(=O)c1ccc2c(c1)c(=O)n(C)c(=O)n2C` [Example 6-8, N-(2,6-dimethylphenyl)-1,3-dimethyl-2,4-dioxo-1,2,3,4-tetrahydroquinazoline-6-sulfonamide], the inhibition at 25 µM at hT2R14 [2] was in the range of 20 to 40%.
Turning to `COc1cc(OC)c(/C=C2\SC(=S)N(CCC(=O)O)C2=O)c(OC)c1` [Example 6-12, (Z)-3-(4-oxo-2-thioxo-5-(2,4,6-trimethoxybenzylidene)thiazolidin-3-yl)propanoic acid], at hT2R14 [1] (Table D, read-out: hT2R14 IC50), the IC50 was 9370 nM.
As to `COc1cc(/C=C2\SC(=S)N(CCC(=O)O)C2=O)cc(OC)c1` [Example 6-13, (Z)-3-(5-(3,5-dimethoxybenzylidene)-4-oxo-2-thioxothiazolidin-3-yl)propanoic acid], at hT2R14 [1] (Table D, read-out: hT2R14 IC50), the IC50 was determined as 5380 nM.
Still for that read-out and setting: in the case of `N#C/C(=C\c1ccc2c(c1)OCO2)C(=O)Nc1nnc(-c2ccccc2)s1` [Example 6-14, (E)-3-(benzo[d][1,3]dioxol-5-yl)-2-cyano-N-(5-phenyl-1,3,4-thiadiazol-2-yl)acrylamide] it was 2910 nM.
Take `CC(=O)CSc1nc(C2CCCC2)nc2c1c(=O)n(C)c(=O)n2C` [Example 6-15, 7-cyclopentyl-1,3-dimethyl-5-(2-oxopropylthio)pyrimido[4,5-d]pyrimidine-2,4(1H,3H)-dione]: the IC50 at hT2R14 [1] (Table D, read-out: hT2R14 IC50) amounted to 5430 nM.
The same measure, in the same setting: in the case of `Cn1c(=O)c2cc(S(=O)(=O)NC3CCCCC3)ccc2n(C)c1=O` [Example 6-16, N-cyclohexyl-1,3-dimethyl-2,4-dioxo-1,2,3,4-tetrahydroquinazoline-6-sulfonamide] it was 7240 nM.
On the same count and under the same terms, in the case of `Cc1cc(C)c(C#N)c(NS(=O)(=O)c2ccc3c(c2)c(=O)n(C)c(=O)n3C)c1` [Example 6-17, N-(2-cyano-3,5-dimethylphenyl)-1,3-dimethyl-2,4-dioxo-1,2,3,4-tetrahydroquinazoline-6-sulfonamide] it was 1950 nM; in that of `Cc1c(F)cccc1NS(=O)(=O)c1ccc2c(c1)c(=O)n(C)c(=O)n2C` [Example 6-18, N-(3-fluoro-2-methylphenyl)-1,3-dimethyl-2,4-dioxo-1,2,3,4-tetrahydroquinazoline-6-sulfonamide], 935 nM; in that of `Cc1nc2ccc(NS(=O)(=O)c3ccc4c(c3)n(C)c(=O)c(=O)n4C)cc2nc1C` [Example 6-19, N-(2,3-dimethylquinoxalin-6-yl)-1,4-dimethyl-2,3-dioxo-1,2,3,4-tetrahydroquinoxaline-6-sulfonamide], 6330 nM.
Take `CCN(C)C(=O)CSc1nc(C)nc2c1c(=O)n(C)c(=O)n2C` [Example 6-22, N-ethyl-N-methyl-2-(2,6,8-trimethyl-5,7-dioxo-5,6,7,8-tetrahydropyrimido[4,5-d]pyrimidin-4-ylthio)acetamide]: on hT2R14 [1] (Table D, read-out: hT2R14 IC50), the IC50 is 861 nM.
On to `Cn1c(=O)c2cc(S(=O)(=O)Nc3ccc(Cl)cc3F)ccc2n(C)c1=O` [Example 6-23, N-(4-chloro-2-fluorophenyl)-1,3-dimethyl-2,4-dioxo-1,2,3,4-tetrahydroquinazoline-6-sulfonamide], for which, at hT2R14 [1] (Table D, read-out: hT2R14 IC50), the IC50 is 9700 nM.
The same measure, in the same setting: as for `Cc1nc(SCC(=O)N2CCCCC2)c2c(=O)n(C)c(=O)n(C)c2n1` [Example 6-24, 1,3,7-trimethyl-5-(2-oxo-2-(piperidin-1-yl)ethylthio)pyrimido[4,5-d]pyrimidine-2,4(1H,3H)-dione], the figure is 292 nM.
Take `Cc1nc(SCC(=O)N2CCOCC2)c2c(=O)n(C)c(=O)n(C)c2n1` [Example 6-25, 1,3,7-trimethyl-5-(2-morpholino-2-oxoethylthio)pyrimido[4,5-d]pyrimidine-2,4(1H,3H)-dione]: at hT2R14 [1] (Table D, read-out: hT2R14 IC50), the IC50 came to 1010 nM.
`CCc1nc(SCC(=O)N2CCC(C)CC2)c2c(=O)n(C)c(=O)n(C)c2n1` [Example 6-26, 7-ethyl-1,3-dimethyl-5-(2-(4-methylpiperidin-1-yl)-2-oxoethylthio)pyrimido[4,5-d]pyrimidine-2,4(1H,3H)-dione]: the IC50 at hT2R14 [1] (Table D, read-out: hT2R14 IC50) is 721 nM.
The same measure, in the same setting: as for `CCOC(=O)N1CCN(C(=O)CSc2nc(CC)nc3c2c(=O)n(C)c(=O)n3C)CC1` [Example 6-27, ethyl 4-(2-(2-ethyl-6,8-dimethyl-5,7-dioxo-5,6,7,8-tetrahydropyrimido[4,5-d]pyrimidin-4-ylthio)acetyl)piperazine-1-carboxylate], the figure is 763 nM; as for `Cn1c(=O)c2c(SCC(=O)N3CCCCCC3)ccnc2n(C)c1=O` [Example 6-28, 5-(2-(azepan-1-yl)-2-oxoethylthio)-1,3-dimethylpyrido[2,3-d]pyrimidine-2,4(1H,3H)-dione], 2380 nM; as for `Cn1c(=O)c2c(SCC(=O)NCc3ccccc3)ccnc2n(C)c1=O` [Example 6-29, N-benzyl-2-(1,3-dimethyl-2,4-dioxo-1,2,3,4-tetrahydropyrido[2,3-d]pyrimidin-5-ylthio)acetamide], 710 nM.
The same measure, in the same setting: in the case of `CNS(=O)(=O)c1ccc2[nH]c(=O)c(=O)[nH]c2c1` [Example 6-30, N-methyl-2,3-dioxo-1,2,3,4-tetrahydroquinoxaline-6-sulfonamide] it was 6230 nM.
